{"source": "ChEMBL document CHEMBL1127126", "about": "“Conformationally restricted analogs of CP-99,994: synthesis of a spirocyclic amine” (Bioorg Med Chem Lett, 1993)", "target": "Substance-P receptor (Homo sapiens, UniProt P25103)", "sequence (P25103 whole entry)": "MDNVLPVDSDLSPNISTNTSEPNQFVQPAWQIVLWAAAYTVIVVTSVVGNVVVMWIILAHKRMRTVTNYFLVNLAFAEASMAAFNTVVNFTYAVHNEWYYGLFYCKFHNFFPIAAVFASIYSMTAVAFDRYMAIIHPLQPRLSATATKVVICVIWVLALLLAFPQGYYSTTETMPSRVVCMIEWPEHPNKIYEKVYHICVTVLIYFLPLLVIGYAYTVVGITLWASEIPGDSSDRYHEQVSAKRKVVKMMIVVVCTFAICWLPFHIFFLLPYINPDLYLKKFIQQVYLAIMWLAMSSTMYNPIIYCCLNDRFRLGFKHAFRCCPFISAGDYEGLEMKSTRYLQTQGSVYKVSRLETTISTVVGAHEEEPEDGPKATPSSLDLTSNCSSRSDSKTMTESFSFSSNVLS", "assay": "Tested for inhibitory activity against substance P receptor.", "data": [{"molecule": "c1ccc([C@H]2NCCC[C@]23CC[C@H](c2ccccc2)N3)cc1", "values": [{"measurement": "IC50", "value": "> 1000", "unit": "nM"}]}]}
